{
  "source": "ChEMBL document CHEMBL1641484",
  "about": "“Efficient synthesis of trisaccharide saponins and their tumor cell killing effects through oncotic necrosis” (Bioorg Med Chem Lett, 2011)",
  "key": {"K562 [1]": {"tested_on": "K562", "experiment": "Cytotoxicity against human K562 cells after 4 hrs by MTT assay", "format": "functional, cell-based", "details": "K562, 4 h"}, "KB [2]": {"tested_on": "KB", "experiment": "Cytotoxicity against human KB cells after 4 hrs by MTT assay", "format": "functional, cell-based"}, "[3]": {"experiment": "Cytotoxicity against human HL-7702 cells after 4 hrs by MTT assay", "format": "cell-based", "details": "L02, 4 h"}, "[4]": {"experiment": "Cytotoxicity against human U87 cells after 4 hrs by MTT assay", "format": "functional, cell-based, U-87MG ATCC", "details": "U-87 MG"}, "[5]": {"experiment": "Cytotoxicity against human EVC304 cells after 4 hrs by MTT assay", "format": "cell-based", "details": "EVC304, 4 h"}, "MCF7 [6]": {"tested_on": "MCF7", "experiment": "Cytotoxicity against human MCF7 cells after 4 hrs by MTT assay", "format": "functional, cell-based", "details": "MCF7, 4 h"}, "H9c2": {"tested_on": "H9c2", "experiment": "Cytotoxicity against rat H9c2 cells after 4 hrs by MTT assay", "format": "cell-based", "details": "H9c2, 4 h"}, "K562 [7]": {"tested_on": "K562", "experiment": "Anticancer activity against human K562 cells assessed as membrane surface blebs at 5 uM after 30 to 60 mins by time-lapse microscopy", "format": "functional, cell-based"}, "K562 [8]": {"tested_on": "K562", "experiment": "Anticancer activity against human K562 cells assessed as membrane surface blebs at 5 uM after 15 to 30 mins by time-lapse microscopy", "format": "functional, cell-based"}, "K562 [9]": {"tested_on": "K562", "experiment": "Anticancer activity against human K562 cells assessed as loss of cell membrane integrity after 12 hrs by propidium iodide staining-based fluorescence microscopy", "format": "functional"}, "MCF7 [10]": {"tested_on": "MCF7", "experiment": "Anticancer activity against human MCF7 cells assessed as loss of microtubules and actin microfilaments after 12 hrs by immunostaining", "format": "functional, cell-based"}, "K562 [11]": {"tested_on": "K562", "experiment": "Anticancer activity against human K562 cells assessed as loss of plasma membrane integrity at 5 uM after 180 mins by LDH release assay", "format": "functional, cell-based"}, "MCF7 [12]": {"tested_on": "MCF7", "experiment": "Anticancer activity against human MCF7 cells assessed as loss of plasma membrane integrity at 5 uM after 180 mins by LDH release assay", "format": "functional, cell-based"}, "K562 [13]": {"tested_on": "K562", "experiment": "Anticancer activity against human K562 cells assessed as loss of plasma membrane integrity at 5 uM after 10 mins by LDH release assay", "format": "functional, cell-based"}, "KB [14]": {"tested_on": "KB", "experiment": "Anticancer activity against human KB cells assessed as loss of cell membrane integrity after 12 hrs by propidium iodide staining-based fluorescence microscopy", "format": "functional"}, "MCF7 [15]": {"tested_on": "MCF7", "experiment": "Anticancer activity against human MCF7 cells assessed as loss of plasma membrane integrity at 5 uM after 10 mins by LDH release assay", "format": "functional, cell-based"}},
  "note": "Activity calls are given as the source filed them. The calls are words filed in the database; no cut-off is given here.",
  "data": [
    {"smiles": "C[C@@H]1CC[C@@]2(OC1)O[C@H]1C[C@H]3[C@@H]4CC=C5C[C@@H](O[C@@H]6O[C@H](CO)[C@H](O)[C@H](O[C@@H]7OC[C@@H](O)[C@H](O)[C@H]7O)[C@H]6O[C@@H]6O[C@@H](C)[C@H](O)[C@@H](O)[C@H]6O)CC[C@]5(C)[C@H]4CC[C@]3(C)[C@H]1[C@@H]2C", "note": "[INDIOSIDE E]", "values": [
      {"measurement": "IC50", "setting": "K562 [1]", "value": 3.74, "unit": "µM"},
      {"measurement": "IC50", "setting": "KB [2]", "value": 1.71, "unit": "µM"},
      {"measurement": "IC50", "setting": "[3]", "value": 4.81, "unit": "µM"},
      {"measurement": "IC50", "setting": "[4]", "value": 2.48, "unit": "µM"},
      {"measurement": "IC50", "setting": "[5]", "value": 3.93, "unit": "µM"},
      {"measurement": "IC50", "setting": "MCF7 [6]", "value": 1.82, "unit": "µM"},
      {"measurement": "IC50", "setting": "H9c2", "value": "> 20", "unit": "µM"}
    ]},
    {"smiles": "C[C@@H]1CC[C@@]2(OC1)O[C@H]1C[C@H]3[C@@H]4CC[C@H]5C[C@@H](O[C@@H]6O[C@H](CO)[C@H](O)[C@H](O[C@@H]7OC[C@@H](O)[C@H](O)[C@H]7O)[C@H]6O[C@@H]6O[C@@H](C)[C@H](O)[C@@H](O)[C@H]6O)CC[C@]5(C)[C@H]4CC[C@]3(C)[C@H]1[C@@H]2C", "values": [
      {"measurement": "Activity", "setting": "K562 [7]", "value": "Active"},
      {"measurement": "IC50", "setting": "K562 [1]", "value": 3.77, "unit": "µM"},
      {"measurement": "IC50", "setting": "KB [2]", "value": 1.32, "unit": "µM"},
      {"measurement": "Activity", "setting": "K562 [8]", "value": "inactive"},
      {"measurement": "Activity", "setting": "K562 [9]", "value": "Active"},
      {"measurement": "IC50", "setting": "[3]", "value": 6.92, "unit": "µM"},
      {"measurement": "IC50", "setting": "[4]", "value": 3.12, "unit": "µM"},
      {"measurement": "IC50", "setting": "[5]", "value": 1.03, "unit": "µM"},
      {"measurement": "Activity", "setting": "MCF7 [10]", "value": "Active"},
      {"measurement": "Activity", "setting": "K562 [11]", "value": "Active"},
      {"measurement": "Activity", "setting": "MCF7 [12]", "value": "Active"},
      {"measurement": "Activity", "setting": "K562 [13]", "value": "Active"},
      {"measurement": "Activity", "setting": "KB [14]", "value": "Active"},
      {"measurement": "IC50", "setting": "MCF7 [6]", "value": 2.61, "unit": "µM"},
      {"measurement": "Activity", "setting": "MCF7 [15]", "value": "Active"},
      {"measurement": "IC50", "setting": "H9c2", "value": "> 20", "unit": "µM"}
    ]},
    {"smiles": "CC[C@H](CC[C@@H](C)[C@H]1CC[C@H]2[C@@H]3CC=C4C[C@@H](O[C@@H]5O[C@H](CO)[C@H](O)[C@H](O[C@@H]6OC[C@@H](O)[C@H](O)[C@H]6O)[C@H]5O[C@@H]5O[C@@H](C)[C@H](O)[C@@H](O)[C@H]5O)CC[C@]4(C)[C@H]3CC[C@]12C)C(C)C", "values": [
      {"measurement": "IC50", "setting": "K562 [1]", "value": "> 40", "unit": "µM"},
      {"measurement": "IC50", "setting": "KB [2]", "value": "> 40", "unit": "µM"},
      {"measurement": "IC50", "setting": "[4]", "value": "> 40", "unit": "µM"},
      {"measurement": "IC50", "setting": "MCF7 [6]", "value": "> 40", "unit": "µM"}
    ]},
    {"smiles": "CC(C)CCC[C@@H](C)[C@H]1CC[C@H]2[C@@H]3CC=C4C[C@@H](O[C@@H]5O[C@H](CO)[C@H](O)[C@H](O[C@@H]6OC[C@@H](O)[C@H](O)[C@H]6O)[C@H]5O[C@@H]5O[C@@H](C)[C@H](O)[C@@H](O)[C@H]5O)CC[C@]4(C)[C@H]3CC[C@]12C", "values": [
      {"measurement": "IC50", "setting": "K562 [1]", "value": 11.3, "unit": "µM"},
      {"measurement": "IC50", "setting": "KB [2]", "value": 16.3, "unit": "µM"},
      {"measurement": "IC50", "setting": "[3]", "value": "> 20", "unit": "µM"},
      {"measurement": "IC50", "setting": "[4]", "value": 16.5, "unit": "µM"},
      {"measurement": "IC50", "setting": "[5]", "value": "> 20", "unit": "µM"},
      {"measurement": "IC50", "setting": "MCF7 [6]", "value": 9.48, "unit": "µM"},
      {"measurement": "IC50", "setting": "H9c2", "value": "> 20", "unit": "µM"}
    ]},
    {"smiles": "C=C(C)[C@@H]1CC[C@]2(C)CC[C@]3(C)[C@H](CC[C@@H]4[C@@]5(C)CC[C@H](O[C@@H]6O[C@H](CO)[C@H](O)[C@H](O[C@@H]7OC[C@@H](O)[C@H](O)[C@H]7O)[C@H]6O[C@@H]6O[C@@H](C)[C@H](O)[C@@H](O)[C@H]6O)C(C)(C)[C@@H]5CC[C@]43C)[C@@H]12", "values": [
      {"measurement": "IC50", "setting": "K562 [1]", "value": "> 40", "unit": "µM"},
      {"measurement": "IC50", "setting": "KB [2]", "value": "> 40", "unit": "µM"},
      {"measurement": "IC50", "setting": "[4]", "value": "> 40", "unit": "µM"},
      {"measurement": "IC50", "setting": "MCF7 [6]", "value": "> 40", "unit": "µM"}
    ]},
    {"smiles": "C[C@@H]1O[C@@H](O[C@H]2[C@H](O[C@H]3CC[C@]4(C)[C@H]5CC[C@]6(C)C(=CC[C@@]7(C)CCC(C)(C)C[C@H]76)[C@]5(C)CC[C@H]4C3(C)C)O[C@H](CO)[C@H](O)[C@@H]2O[C@@H]2OC[C@@H](O)[C@H](O)[C@H]2O)[C@H](O)[C@H](O)[C@H]1O", "values": [
      {"measurement": "IC50", "setting": "K562 [1]", "value": "> 40", "unit": "µM"},
      {"measurement": "IC50", "setting": "KB [2]", "value": "> 40", "unit": "µM"},
      {"measurement": "IC50", "setting": "[4]", "value": "> 40", "unit": "µM"},
      {"measurement": "IC50", "setting": "MCF7 [6]", "value": "> 40", "unit": "µM"}
    ]}
  ]
}
